From paper PMC5734728, “The JAK2/STAT3 inhibitor pacritinib effectively inhibits patient-derived GBM brain tumor initiating cells in vitro and when used in combination with temozolomide increases survival in an orthotopic xenograft model” (PLoS ONE, 2017)

Key:
BT50 = assay: alamarBlue BTIC viability assay, BT50; type: cell-based; conditions: Homo sapiens; BTIC line BT50, alamarBlue
BT69 [1] = assay: alamarBlue BTIC viability assay, BT69; type: cell-based; conditions: Homo sapiens; BTIC line BT69, alamarBlue
BT67 = assay: alamarBlue BTIC viability assay, BT67; type: cell-based; conditions: Homo sapiens; BTIC line BT67, alamarBlue
BT68 = assay: alamarBlue BTIC viability assay, BT68; type: cell-based; conditions: Homo sapiens; BTIC line BT68, alamarBlue
[2] = human, in vivo, cited from earlier work
[3] = test system: BT147 orthotopic xenograft; assay: Kaplan-Meier survival, orthotopic BT147 xenograft; type: in vivo; conditions: BT147 xenografted mice
Description: For Kaplan-Meier survival studies, BTIC spheres from BT53 or BT147 were dissociated to a single-cell suspension. Mice were anaesthetized using 10 mg/kg ketamine/xylazine. Buprenorphine (0.05 mg/kg) was administered once pre-operatively and once post-operatively to minimize animal suffering. 5 x 10^4 cells were stereotactically implanted into the right striata of 8- to 10-week-old female severe combined immunodeficient (SCID) mice, as previously described and approved by the University of Calgary Health Sciences Animal Care Committee, accredited by CCAC. Mice were randomized to vehicle or treatment cohorts, with a minimum of 8 mice per group, one week after cell implantation. For BT147, vehicle (Ora-Plus; Galenova), pacritinib (100 mg/kg), TMZ (30 mg/kg), or a combination of pacritinib (100 mg/kg) and TMZ (30 mg/kg), were administered via oral gavage. Animals completed a five-week regimen of three weekly treatments for a total of 15 treatments. For BT53, 100 mg/kg of pacritinib was administered twice per day alone or in combination with 50 mg/kg TMZ once per day, for one week via oral gavage. Following this, mice received 100 mg/kg pacritinib twice per day in combination with 10 mg/kg TMZ once per day for two weeks. Mice were euthanized with a lethal dose of sodium pentobarbital at a pre-defined humane endpoint. Specific criteria for the endpoint included: 20% weight loss, lack of grooming, inactivity, hind limb paralysis, and/or inability to eat or drink. The body weights were closely monitored throughout the course of the experiment. […] The presence of tumor was confirmed in the mice via necropsy and cranial dissection.

[4] = test system: BT53 orthotopic xenograft; assay: Kaplan-Meier survival, orthotopic BT53 xenograft; type: in vivo, mice; conditions: BT53 xenografted mice, 100 mg/kg pacritinib, three weeks; p < 0.7237 log-rank
Description: For Kaplan-Meier survival studies, BTIC spheres from BT53 or BT147 were dissociated to a single-cell suspension. Mice were anaesthetized using 10 mg/kg ketamine/xylazine. Buprenorphine (0.05 mg/kg) was administered once pre-operatively and once post-operatively to minimize animal suffering. 5 x 10^4 cells were stereotactically implanted into the right striata of 8- to 10-week-old female severe combined immunodeficient (SCID) mice, as previously described and approved by the University of Calgary Health Sciences Animal Care Committee, accredited by CCAC. Mice were randomized to vehicle or treatment cohorts, with a minimum of 8 mice per group, one week after cell implantation. For BT147, vehicle (Ora-Plus; Galenova), pacritinib (100 mg/kg), TMZ (30 mg/kg), or a combination of pacritinib (100 mg/kg) and TMZ (30 mg/kg), were administered via oral gavage. Animals completed a five-week regimen of three weekly treatments for a total of 15 treatments. For BT53, 100 mg/kg of pacritinib was administered twice per day alone or in combination with 50 mg/kg TMZ once per day, for one week via oral gavage. Following this, mice received 100 mg/kg pacritinib twice per day in combination with 10 mg/kg TMZ once per day for two weeks. […] The body weights were closely monitored throughout the course of the experiment. […]

cleaved PARP = assay: western blotting of cleaved PARP in BTICs; type: cell-based, human; conditions: BT69, 24 hours
Description: (§1) BTIC spheres were enzymatically dissociated as described above and plated at 10^6 cells/2 mL of media. Cells were treated with vehicle (DMSO), pacritinib, TMZ, or a combination of pacritinib and TMZ and pelleted at select time points (3, 24, and 48 hours). For protein extraction, BTICs were lysed in modified radio-immunoprecipitation assay buffer supplemented with Complete Mini protease (Roche) and Halt phosphatase (Thermo Scientific) inhibitor cocktails. […] Blots were stained with primary antibodies followed by horseradish peroxidase-conjugated secondary antibodies. […] Cell Signaling Technology), STAT3 (1:1000; Cell Signaling Technology), p-Akt S473 (1:1000; Cell Signaling Technology), Akt (1:1000; Cell Signaling Technology), p-p44/42 MAPK (T202/Y204) (1:1000; Cell Signaling Technology), p44/42 MAPK (1:4000; Cell Signaling Technology), poly (ADP-ribose) polymerase (1:1000; Cell Signaling Technology), β-tubulin (1:1000; Cell Signaling Technology), and Actin (1:1000; Santa Cruz Biotechnology). Secondary antibodies included donkey anti-mouse (1:5000; Cell Signaling Technology), donkey anti-goat (1:5000; Millipore), and goat anti-rabbit (1:5000; Cell Signaling Technology). […] Bands were visualized with the SuperSignal West Pico chemiluminescent solution (Thermo Scientific) and an Amersham™ Imager 600 (General Electric).

BT12 = assay: alamarBlue BTIC viability assay, BT12; conditions: Homo sapiens, BT-12, read-out: IC50 (viability)
Description: (§2) Accumax (eBioscience) was used to enzymatically dissociate BTIC spheres to single cells. Cells were seeded at 1000 cells per well in 96-well plates and treated with vehicle (DMSO) or drug, 24 hours after plating. BTIC viability was assessed after 7–14 days, once spheres were formed in control wells, by performing the alamarBlue™ (Invitrogen) assay per the manufacturer’s instructions. In brief, the alamar dye was added to each well and plates were read 6 hours later. Fluorescence intensity (excitation 540 nm; emission 590 nm) was measured on a SpectraMax M Series Multi-Mode Microplate reader. […] All experiments were performed in triplicate with a minimum of 3 wells per condition.
(§3) BTICs were treated with suboptimal doses of 1 μM pacritinib (CTI Biopharma), 10 μg/mL TMZ (Sigma), or a combination of pacritinib and TMZ. […] Percent inhibition was determined by normalizing each well to the control well (0.1% DMSO).

BT124 = assay: alamarBlue BTIC viability assay, BT124; type: cell-based; conditions: Homo sapiens; BTIC line BT124, alamarBlue
[5] = test system: BT206 orthotopic xenograft; assay: Kaplan-Meier survival, orthotopic BT206 xenograft; type: in vivo; conditions: BT206 xenografted mice; p < 0.0968 log-rank
BT69 [6] = assay: neurosphere assay, BT69; type: cell-based, human; conditions: 3 μM
BT147 = assay: neurosphere assay, BT147; type: cell-based, human; conditions: 3 μM
[7] = test system: patient-derived GBM BTIC cultures; assay: alamarBlue viability assay, panel of BTIC cultures
Description: as §2, §3

p-Akt S473 = assay: western blotting of p-Akt in BTICs; type: cell-based, human
Description: as §1

[8] = test system: patient-derived GBM BTIC cultures; assay: neurosphere assay, all BTIC cultures tested; type: cell-based, human; conditions: 5 μM
BT143 = assay: alamarBlue BTIC viability assay, BT143; type: cell-based; conditions: Homo sapiens; BTIC line BT143, alamarBlue
BT189 = assay: alamarBlue BTIC viability assay, BT189; type: cell-based; conditions: Homo sapiens; BTIC line BT189, alamarBlue

C1=C/COCc2cc(ccc2OCCN2CCCC2)Nc2nccc(n2)-c2cccc(c2)COC/1 [pacritinib]
IC50 (BT50): 0.62 µM | IC50 (BT69 [1]): 1.26 µM | IC50 (BT67): 1.08 µM | IC50 (BT68): 1.22 µM | Cmax ([2]; 100 mg): 7.8 µM | mean maximum concentration (Cmax) ([2]; 100 mg): 3699 ng/mL | median time to maximum concentration (Tmax) [2]: 5 h | survival advantage, single agent ([3]; 100 mg/kg pacritinib, p < 0.4649 log-rank): no survival advantage | median survival ([3]; pacritinib 100 mg/kg, TMZ 30 mg/kg, oral, thrice weekly for five weeks, control 52 days): 48 days | survival advantage, single agent [4]: failed to provide a survival advantage | cell death (cleaved PARP levels) (cleaved PARP): increase in cleaved PARP levels | IC50 (BT12): 1.66 µM | IC50 (BT124): 1.33 µM | efficacy of treatment alone (Kaplan-Meier survival) [5]: no efficacy | sphere formation (BT69 [6]): completely abolished sphere formation | sphere formation (BT147): completely abolished sphere formation | IC50 ([7]; Homo sapiens, read-out: IC50 values for the eleven BTIC cultures tested): 0.62 to 1.66 µM | viability reduced ([7]; at 1.5 μM, in 10/11 BTIC cultures tested): 50% | p-Akt S473 (p-Akt S473; BT147 and BT53, 5 and 10 μM): decreased | phosphorylation of AKT S473 (p-Akt S473; BT147 and BT53, low micromolar concentrations, 3 hours): unchanged levels of phosphorylation | sphere formation [8]: completely inhibit sphere formation | IC50 (BT143): 1.36 µM | IC50 (BT189): 1.01 µM
